One test relates to STAT3. Description: Fluorescence polarization assay, STAT3. Type of test: binding. The settings on record: at 40 µM.
For another test, the target named is T1, STAT6 (Homo sapiens, UniProt P42226).
T1 sequence (P42226 1-847): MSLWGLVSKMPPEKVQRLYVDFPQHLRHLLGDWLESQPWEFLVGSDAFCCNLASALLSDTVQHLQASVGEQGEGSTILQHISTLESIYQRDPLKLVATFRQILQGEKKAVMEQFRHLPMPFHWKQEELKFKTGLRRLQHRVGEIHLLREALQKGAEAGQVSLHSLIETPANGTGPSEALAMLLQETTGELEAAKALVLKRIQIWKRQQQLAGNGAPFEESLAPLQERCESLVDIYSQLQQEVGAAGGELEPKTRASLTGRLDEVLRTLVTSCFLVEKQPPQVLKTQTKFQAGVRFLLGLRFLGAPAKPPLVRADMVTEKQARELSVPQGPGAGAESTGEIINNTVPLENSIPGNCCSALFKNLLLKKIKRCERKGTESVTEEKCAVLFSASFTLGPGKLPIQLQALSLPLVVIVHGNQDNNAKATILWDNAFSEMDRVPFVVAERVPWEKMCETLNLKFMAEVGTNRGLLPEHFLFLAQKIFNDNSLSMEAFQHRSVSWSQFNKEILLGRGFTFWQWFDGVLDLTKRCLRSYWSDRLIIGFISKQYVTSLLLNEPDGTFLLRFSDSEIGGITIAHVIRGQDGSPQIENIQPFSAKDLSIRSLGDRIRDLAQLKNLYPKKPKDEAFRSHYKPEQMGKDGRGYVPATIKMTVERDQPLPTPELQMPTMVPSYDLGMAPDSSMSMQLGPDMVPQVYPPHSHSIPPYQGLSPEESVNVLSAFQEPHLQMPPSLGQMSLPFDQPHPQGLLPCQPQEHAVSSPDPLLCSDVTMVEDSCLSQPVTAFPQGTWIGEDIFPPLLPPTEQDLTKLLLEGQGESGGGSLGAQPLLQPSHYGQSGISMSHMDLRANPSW
The test can be described thus: Fluorescence polarization assay, STAT6. It counts as binding.

The next test deals with T2, wild-type STAT5b (Homo sapiens, UniProt P51692).
T2 sequence (P51692 1-787): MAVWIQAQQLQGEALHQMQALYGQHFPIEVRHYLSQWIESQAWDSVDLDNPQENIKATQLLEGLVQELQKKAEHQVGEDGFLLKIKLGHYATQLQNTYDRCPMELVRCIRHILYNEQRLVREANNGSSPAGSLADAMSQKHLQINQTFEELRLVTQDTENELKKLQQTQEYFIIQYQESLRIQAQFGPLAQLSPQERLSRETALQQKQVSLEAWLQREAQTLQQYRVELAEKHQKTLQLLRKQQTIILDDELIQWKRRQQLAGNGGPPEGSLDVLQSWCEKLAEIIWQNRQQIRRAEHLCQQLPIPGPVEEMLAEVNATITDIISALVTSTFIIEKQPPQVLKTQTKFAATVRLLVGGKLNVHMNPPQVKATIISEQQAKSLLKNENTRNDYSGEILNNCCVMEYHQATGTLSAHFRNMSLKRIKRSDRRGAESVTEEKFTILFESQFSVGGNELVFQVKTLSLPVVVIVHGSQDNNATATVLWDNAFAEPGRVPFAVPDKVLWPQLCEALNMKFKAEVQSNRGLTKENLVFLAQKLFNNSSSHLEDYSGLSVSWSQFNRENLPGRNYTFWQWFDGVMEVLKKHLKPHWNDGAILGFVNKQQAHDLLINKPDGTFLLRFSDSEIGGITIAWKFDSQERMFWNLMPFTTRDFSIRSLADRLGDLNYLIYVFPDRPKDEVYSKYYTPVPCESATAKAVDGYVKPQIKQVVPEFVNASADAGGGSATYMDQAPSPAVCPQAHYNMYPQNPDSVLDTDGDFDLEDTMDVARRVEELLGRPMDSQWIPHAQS
Description: Isothermal titration calorimetry, wild-type STAT5b. It counts as binding. Particulars: ITC, 25 °C, n = 3.

The target in a further test is T3, STAT5a wild-type (Homo sapiens, UniProt P42229).
T3 sequence (P42229 1-794): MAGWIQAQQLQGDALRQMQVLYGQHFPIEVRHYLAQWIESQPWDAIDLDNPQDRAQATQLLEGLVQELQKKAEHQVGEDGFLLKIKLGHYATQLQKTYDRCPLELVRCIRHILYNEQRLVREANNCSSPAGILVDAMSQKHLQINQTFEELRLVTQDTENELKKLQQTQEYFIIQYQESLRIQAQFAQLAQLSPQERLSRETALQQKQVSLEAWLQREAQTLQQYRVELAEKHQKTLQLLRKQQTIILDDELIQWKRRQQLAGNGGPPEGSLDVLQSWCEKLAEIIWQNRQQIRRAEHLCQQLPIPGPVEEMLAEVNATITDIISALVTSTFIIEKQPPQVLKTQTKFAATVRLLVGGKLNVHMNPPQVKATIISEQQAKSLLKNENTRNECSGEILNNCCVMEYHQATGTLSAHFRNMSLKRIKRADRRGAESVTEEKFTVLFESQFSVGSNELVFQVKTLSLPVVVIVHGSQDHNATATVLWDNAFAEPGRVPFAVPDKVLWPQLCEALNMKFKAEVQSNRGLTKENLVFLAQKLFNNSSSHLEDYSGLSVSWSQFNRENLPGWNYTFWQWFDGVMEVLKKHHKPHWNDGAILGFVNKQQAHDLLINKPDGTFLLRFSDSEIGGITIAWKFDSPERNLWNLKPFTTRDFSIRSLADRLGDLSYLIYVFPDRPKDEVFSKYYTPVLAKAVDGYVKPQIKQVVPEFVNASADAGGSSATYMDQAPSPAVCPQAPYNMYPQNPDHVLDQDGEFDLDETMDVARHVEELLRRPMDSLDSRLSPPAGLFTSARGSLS
Description: Isothermal titration calorimetry, STAT5a wild-type. Type of test: binding.

The next test has as its target T4, STAT5b-GFP (Homo sapiens, UniProt P51692).
T4 sequence (P51692 1-787): T2 sequence (P51692 1-787)
Description: STAT5b Tyr699 phosphorylation in STAT5b-GFP-transfected K562 cells (Western blot). It counts as cell-based.

`O=C(COc1ccc(C(=O)Nc2ccc(Oc3ccccc3)cc2)cc1)NCc1ccc(OP(=O)(O)O)c(OP(=O)(O)O)c1` [compound 4, 4-((2-(4-((4-phenoxyphenyl)carbamoyl)phenoxy)acetamido)methyl)-1,2-phenylene bis(dihydrogen phosphate)] had an STAT3 maximum inhibition in the test on STAT3 of 30 ± 3%. This compound also had a Ki on STAT6 (converted from IC50 using the published equation) of 11.7 ± 1.2 µM. Besides, on STAT6 (fluorescence polarization), 23.7 ± 2.5 µM corresponded to half-maximal inhibition (IC50). Further, on wild-type STAT5b, the ΔH was -4.1 ± 0.5 kcal/mol and the “−TΔS” value was -4.8 ± 0.6 kcal/mol. Moreover, the “fold lower affinity for STAT5a than for STAT5b” value at STAT5a wild-type (ITC Kd STAT5a vs wild-type STAT5b) is “approximately 20 fold”. The compound also registered a Kd at STAT5a wild-type (ITC, 25 °C, STAT5a) of 6.1 ± 3.2 µM. Further, on STAT5b-GFP, the “inhibition of STAT5b phosphorylation” value was “did not show significant activity”.

Source of the values: PMC5429769, “Rational development of Stafib-2: a selective, nanomolar inhibitor of the transcription factor STAT5b” (Scientific Reports, 2017).
